From patent US5859032A, “Pyridine derivative, anti-ulcer drug, and antibacterial drug” (priority 1996, dated 1999) come the findings set out here.

Data set [1] is described as follows: MTT: Cell Damaging and Protecting Effect Test. Conditions: rabbit, gastric mucosa cells, 10^-4 M, 37° C., smaller value is better, read-out: MTT: cell damaging rate. Type of data set: cell-based, Japanese White rabbit. An excerpt:
MTT: Cell Damaging and Protecting Effect Test
It is confirmed that there is no toxicity in cell level. Those having a toxicity in cell level are inappropriate as an anti-ulcer drug.
A male Japanese White rabbit (2.5 to 3 kg) was anesthetized to death by Nembutal™ and, immediately thereafter, its stomach was removed. The greater curvature of the stomach was incised so as to remove the stomach contents therefrom. After the mucosal surface was washed with HBSS (Hanks' Balanced Salt Solution), the stomach in ice-cooled HBSS was transferred to a laboratory. Then, after the pyloric antrum was removed, the gastric corpus mucosa was separated by a spatula and then minced into 2 to 3 mm^3 pieces in BME (Basal Medium Eagle). Thereafter, these pieces were shaken at 120 to 130 cycles/minute for 15 minutes at 37° C. in BME 60 ml containing 280 U/ml of dispase and 30 to 50 U/ml of collagenase. Here, the concentration of collagenase was appropriately changed for each lot in view of the state of cells. The pieces were washed twice with EBSS (Earle's Balanced Salt Solution) containing 1 mM of EDTA and then shaken in MEM (Minimum Essential Medium) containing 1 mM of EDTA at 37° C. for 5 minutes. Subsequently, they were shaken in the dispase and collagenase having the same concentrations as those mentioned above for 15 minutes so as to remove the supernatant and then further shaken at 37° C. for 50 to 60 minutes at 120 to 130 cycles/minute. Then, after being washed twice with HBSS, Ham F12 containing 2% of Ultrocer GT™ was used to attain the concentration of 1×10^6 cells/ml. Thus formed suspension was dispensed in each well of a 96-well plate by 200 μl. The plate was incubated in the atmosphere composed of 5% CO2 and 95% air at 37° C. for three days so as to attain a confluent state and then subjected to MTT assay.
The sample compound was dissolved in DMSO so as to attain a concentration of 10^-2 M and then diluted with HBSS containing 2% of Ultrocer G™ so as to attain a final concentration of 10^-4 M. To each group, which 8 wells were used for, 10 μl of MTT reagent was added immediately after 100 μl of the medium in each well was exchanged for same volume of the resulting solution of the sample compound. After being incubated in an atmosphere composed of 5% CO2 and 95% air at 37° C. for 4 hours, thus formed solution was centrifuged and then its supernatant was discarded. Subsequently, 100 μl of 100% ethanol was added to the residue so as to dissolve MTT formazan. Then, the absorbance (OD: 570 to 630) was measured by a microplate reader. This method utilizes a phenomenon in which MTT is changed to MTT formazan only by mitochondria of living cells so as to change color.
The cell damaging or cell protecting effect of the sample compound at the final concentration of 10^-4 M was expressed as cell damaging rate (%) as follows:
cell damaging rate (%)=(1-(absorbance in sample group/absorbance in control
Accordingly, the smaller value is better in the cell damaging rate.

Data set [2] deals with isolated gastric fundic gland. Nature of the data set: CAP: Acid Secretion Inhibition Test In Vitro ([14C]-aminopyrine uptake test). In kind it is cell-based, Japanese White rabbit. The settings on record: Oryctolagus cuniculus, 40 min, 10^-5 M, histamine 10^-5 M, 37° C., read-out: CAP: acid secretion inhibitory rate. On the procedure: CAP: Acid Secretion Inhibition Test In Vitro
The acid secretion inhibitory activity in a cell level is studied. It can also be used for studying the mechanism of the effect. […]
ii-a) Preparation of isolated gastric fundus gland suspension
First, an isolated gastric fundic gland sample was prepared. Namely, a male Japanese White rabbit (2.5 to 3 kg) was anesthetized to death with Nembutal™ and then the abdomen was incised. Immediately thereafter, the stomach was removed and, after its pyloric and cardiac antrum were severed, incised along its greater curvature into two sheets. The gastric contents adhering to the mucosal surface was washed out with ice-cooled PBS (-) and then carefully washed therein. The gastric wall was spread on a cork board with its mucosal surface facing up and the feed and mucus thereon were completely removed with sterile gauze. The mucosa was separated therefrom by a spatula and then collected in ice-cooled PBS (-). After being washed twice with PBS (-), the mucosa was minced into 2-3 mm^3 pieces by scissors. These pieces were further washed twice with a nutrient solution. The nutrient solution comprises 132.4 mM of NaCl, 5.4 mM of KCl, 5 mM of Na2 HPO4. 12H2 O, 1 mM of NaH2 PO4. 2H2 O, 1.2 mM of MgSO4, 1 mM of CaCl 2, 25 mM of HEPES, 2 mg/ml of glucose, and 1 mg/ml of BSA. Into 70 ml of the nutrient solution containing 1 mg/ml of collagenase, minced mucosal pieces were dispersed and intensely stirred in a conical flask with a stirrer at 37° C. for 40 to 60 minutes. During this period, 100% O2 was sprayed on the nutrient solution surface and the pH was appropriately measured such that it was immediately adjusted to pH 7.4, when the value was therebelow, with a base. The nutrient solution was added to the reaction solution so as to attain the total amount of about 200 ml. After being filtered through a mesh, the suspension was divisionally introduced into 50 ml centrifuge tubes and left for 15 minutes such that gastric fundic gland was deposited. The supernatant was repeatedly removed by an aspirator, dispersed in the nutrient solution, and then left such that the gastric fundic gland was washed three times. At this time, without using a pipette, the suspension was alternately introduced into two centrifuge tubes so as to effect dispersion. The number of cells was counted under microscope and adjusted to 1.6×10^6 cells/ml. […]
ii-b) [^14 C]-aminopyrine uptake test
Then, [^14 C]-aminopyrine uptake test was performed. After an Eppendorf tube was weighed, 10 μl (final concentration: 10^-5 M) of histamine dissolved in the above-mentioned nutrient solution, 10 μl (final concentration: 10^-5 M) of the test compound dissolved in DMSO, and 10 μl (final concentration: 0.05 μCi/ml) of [^14 C]-aminopyrine diluted with the nutrient solution were introduced therein and then 970 μl of the isolated gastric fundic gland suspension prepared above was added thereto. Subsequently, this mixture was shaken at 37° C. for 40 minutes at 125 cycles/minute. After being centrifuged for 30 minutes, 200 μl of its supernatant was collected into a mini-vial, while the rest was removed by an aspirator. The gland pellet was completely dried as the tube with its lid being opened was kept for one night in a drying oven at 80° C. and then the lid was closed and the weight was determined at room temperature. Then 100 μl of 1N KOH was added thereto and the tube with its lid being closed was treated at 60° C. for 1 to 2 hours so as to dissolve the pellet. Then, the contents thereof were transferred to a mini-vial. Into the mini-vial containing the supernatant or gland pellet, 4 ml of Atomlite™ was added and then the radioactivity was measured by a liquid scintillation counter. Here, after the radioactivity of the gland pellet was corrected by using a sample in which 20 mM of NaSCN was added so as to cancel the hydrogen ion concentration gradient, the integration ratio of aminopyrine specifically trapped by the gland pellet was calculated. […]

The subject of another data set is mice. Conditions: mouse, in vivo.

Protocol for mice: AT: Single Dose Toxicity Pretest
Male Slc:ICR mice (5-week-old) were used. Each group has 3 to 5 mice and each mouse was fasted, but allowed free access to water, for 4 to 5 hours from 9 a.m. in the test day. Then, 2,000 mg/10 ml/kg of the sample compound dissolved or suspended in an aqueous solution of 0.5% sodium carboxymethyl cellulose was orally administered thereto. To a control, only the vehicle was administered. […] The body weight was measured before and after the fasting as well as at the same time everyday. The dead animals were immediately subjected to autopsy and their organs were observed microscopically. Also, the living animals were sacrificed with ether or carbon dioxide one week after the administration and then their organs were observed microscopically.
The toxicity at the single dose of 2,000 mg/kg of the sample compound was expressed as being classified into 5 levels.
5: Mortality rate is 0%; no toxicity is found at all both in behavior and organs.
4: Mortality rate is 0%; while no toxicity is found in organs, slight toxicity is observed in behavior and body weight increase.
3: While there is a dead animal (though not all the animals are dead), no toxicity is found in organs.
2: Regardless of whether there is a dead animal or not, toxicity is found in organs.
1: All the animals are dead.

On to `CC(C)=CCC/C(C)=C/COc1ccc(C(=O)Nc2cccnc2)cc1` [Example 4, 3-(4-geranyloxybenzoylamino)pyridine], for which, in data set [1], the cytotoxicity at 4 h, 100 µM worked out at 6%. Further, the inhibition at 10 µM in data set [2] came to 44%.

For `CC(C)=CCC/C(C)=C/COc1ccc(C(=O)NCC(=O)Nc2ccccn2)cc1` [Example 13, 2-[2-(4-geranyloxybenzoylamino)acetylamino]pyridine], in data set [1], the cytotoxicity at 4 h, 100 µM is -36%. In addition, the inhibition at 10 µM in data set [2] was determined as 31%. The “AT: toxicity at the single dose (5 levels)” value (from here on “AT: toxicity”) in the data set on mice amounted to 5.

Consider `CC(C)=CCC/C(C)=C/COc1ccc(C(=O)NCc2ccncc2)cc1` [Example 3, 4-(4-geranyloxybenzoylaminomethyl)pyridine], for which the cytotoxicity at 4 h, 100 µM in data set [1] came out at 16%. Further, the inhibition at 10 µM in data set [2] is 99%. Besides, the “AT: toxicity” value with mice is on record as 5.

`COc1ccc(SCCNC(=O)c2ccc(OC/C=C(\C)CCC=C(C)C)cc2)nc1` [Example 11, 2-[2-(4-geranyloxybenzoylamino)ethylthio]-5-methoxypyridine]: the cytotoxicity at 4 h, 100 µM in data set [1] is -34%. Also, in data set [2], the inhibition at 10 µM came out at 55%. Moreover, the “AT: toxicity” value with mice was found to be 5.

Take `CC(C)=CCC/C(C)=C/COc1ccc(C(=O)NCCNc2cccnc2)cc1` [Example 7, 3-[2-(4-geranyloxybenzoylamino)ethylamino]pyridine]: the cytotoxicity at 4 h, 100 µM in data set [1] came out at 48%. In data set [2], the inhibition at 10 µM amounted to 100%.

Consider `CC(C)=CCC/C(C)=C/COc1ccc(C(=O)NCCc2ccccn2)cc1` [Example 1, 2-[2-(4-geranyloxybenzoylamino)ethyl]pyridine], for which, in data set [1], the cytotoxicity at 4 h, 100 µM worked out at 8%. Also, the inhibition at 10 µM in data set [2] amounted to 97%. Further, the “AT: toxicity” value in the data set on mice was 5.

`CC(C)=CCC/C(C)=C/COc1ccc(C(=O)NCCc2ccncc2)cc1` [Example 2, 4-[2-(4-geranyloxybenzoylamino)ethyl]pyridine]: the cytotoxicity at 4 h, 100 µM in data set [1] is 7%. In addition, the inhibition at 10 µM in data set [2] was 99%. For the same compound, the “AT: toxicity” value in the data set on mice was determined as 5.

Take `COc1ccc(NCCNC(=O)c2ccc(OC/C=C(\C)CCC=C(C)C)cc2)nc1` [Example 8, 2-[2-(4-geranyloxybenzoylamino)ethylamino]-5-methoxypyridine]: the cytotoxicity at 4 h, 100 µM in data set [1] was -45%. In data set [2], the inhibition at 10 µM is 97%. In the data set with mice, the “AT: toxicity” value amounted to 5.

Consider `CC(C)=CCC/C(C)=C/COc1ccc(C(=O)NCCNc2cc(C)cc(C)n2)cc1` [Example 10, 2,4-dimethyl-6-[2-(4-geranyloxybenzoylamino)ethylamino]pyridine], for which, in data set [1], the cytotoxicity at 4 h, 100 µM is 65%. The inhibition at 10 µM in data set [2] is 101%. Also, the “AT: toxicity” value in the data set on mice is given as 4.

Take `CC(C)=CCOc1ccc(OCC=C(C)C)c(C(=O)NCCc2ccncc2)c1` [Example 6, 4-[2-(2,5-diprenyloxybenzoylamino)ethyl]pyridine]: in data set [1], the cytotoxicity at 4 h, 100 µM is -94%. The inhibition at 10 µM in data set [2] turned out to be 100%.
